In patent publication US20160311791A1, “NOVEL TRICYCLIC CALCIUM SENSING RECEPTOR ANTOGONISTS FOR THE TREATMENT OF OSTEOPOSOSIS” (MERCK SHARP & DOHME CORP., priority 2013, published 2016) one finds IC50 data, which are given here for 39 compounds.

SMILES strings stand for the structures. Some results are limits rather than exact numbers.

This assay has as its target T1, human CaSR (Homo sapiens, UniProt P41180).
T1 sequence (P41180 20-1078): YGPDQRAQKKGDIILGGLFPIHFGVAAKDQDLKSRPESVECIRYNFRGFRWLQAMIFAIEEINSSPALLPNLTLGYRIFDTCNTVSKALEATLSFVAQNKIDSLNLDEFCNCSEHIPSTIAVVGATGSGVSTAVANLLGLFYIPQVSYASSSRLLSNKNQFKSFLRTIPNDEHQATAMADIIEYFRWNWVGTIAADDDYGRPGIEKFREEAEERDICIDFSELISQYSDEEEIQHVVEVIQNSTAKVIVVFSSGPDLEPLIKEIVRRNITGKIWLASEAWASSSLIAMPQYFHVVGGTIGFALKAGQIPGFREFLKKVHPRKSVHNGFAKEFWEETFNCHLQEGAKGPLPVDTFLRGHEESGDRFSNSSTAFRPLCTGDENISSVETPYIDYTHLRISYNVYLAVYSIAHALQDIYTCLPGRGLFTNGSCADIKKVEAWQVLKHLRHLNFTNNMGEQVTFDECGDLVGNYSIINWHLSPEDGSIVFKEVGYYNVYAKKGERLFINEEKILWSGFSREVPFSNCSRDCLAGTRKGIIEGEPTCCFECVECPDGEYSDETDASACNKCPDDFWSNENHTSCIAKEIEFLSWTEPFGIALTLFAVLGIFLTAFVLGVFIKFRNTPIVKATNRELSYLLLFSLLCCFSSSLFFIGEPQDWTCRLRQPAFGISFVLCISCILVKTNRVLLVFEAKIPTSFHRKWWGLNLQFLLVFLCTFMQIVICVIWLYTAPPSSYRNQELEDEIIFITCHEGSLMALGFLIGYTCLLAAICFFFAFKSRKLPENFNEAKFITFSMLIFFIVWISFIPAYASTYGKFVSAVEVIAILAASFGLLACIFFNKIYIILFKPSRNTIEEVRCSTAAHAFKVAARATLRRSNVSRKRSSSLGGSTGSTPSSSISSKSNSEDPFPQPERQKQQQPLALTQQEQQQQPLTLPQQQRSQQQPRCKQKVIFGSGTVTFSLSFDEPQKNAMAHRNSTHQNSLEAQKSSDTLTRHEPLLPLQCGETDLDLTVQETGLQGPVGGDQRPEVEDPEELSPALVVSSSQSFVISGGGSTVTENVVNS
The assay can be described thus: CaSR FLIPR assay (calcilytic activity). In kind it is cell-based. On the set-up: expressed in transfected cells. The following applies: HEK293 cells stably expressing human recombinant CaSR; 1 mM CaCl2 agonist; Tables 1-24; read-out: FLIPR ASSAY IC50. As to the method: Procedures for CaSR FLIPR Assay
Calcilytic activity of the compound is measured in HEK293 cells stably expressing human recombinant CaSR (HEK-CaSR) using a FLIPR^TETRA device (Molecular Devices, Sunnyvale, Calif.) according to the manufacturer's directions. […] On the day of the assay, one vial of FLIPR Calcium 4 Assay Kit reagent Component A was equilibrated to room temperature. The content of the Component A vial was diluted by adding 10 ml dilution buffer (2×loading dye). The sample was mixed by vortexing (1-2 minutes) until the contents of the vial dissolved. The Component A vial mixture was diluted with 10 ml dilution buffer. Media was aspirated from the cells and 80 μl of loading buffer was added to each well. Plates were incubated for 1 hour at 37° C. and then placed at room temperature for 10 minutes. A two-stage method of generating 10-point serial dilutions was used. Compound was serially diluted in 100% DMSO (10 point, 3-fold dilution of each compound from 2 mM in 100% DMSO). 3 μl of serially diluted compound was transferred into a second assay microplate that contained 97 μl of TETRA dilution buffer (20 mM HEPES pH7.4, 1×HBSS without Ca and Mg, 0.4 mM CaCl2, 0.4 mM MgSO4, 0.5 mM MgCl2) to create the intermediate dilution plate. After reading the base line, the compounds in 0.5% DMSO in dilution buffer were added to their respective wells as 20 μl aliquots at 6×the final drug concentration. The fluorescence signals were then read. Subsequently, 20 μl of 3.6 mM of CaCl2 agonist (1 mM final concentration) was added to each well. For background, 20 μl of TETRA dilution buffer was added instead. The protocol consisted of a pre-addition read of 10 frames (10×1 frame/sec), a post 1st addition read of 100 frames (60×1 frame/sec, 40×1 frame/3 sec), pause 3 min, a post 2nd addition read of 100 frames (60×1 frame/sec, 40×1 frame/3 sec) on a FLIPR^TETRA Plate Reader.
As a reminder, the IC50 is the concentration that gives 50% inhibition. `C[C@@H](OC[C@H](O)CNC(C)(C)Cc1ccc(Cl)c(F)c1)c1cccc2c1O[C@@H]1[C@@H](C(=O)O)[C@H]21` [Example 1-2]: the IC50 amounted to 148 nM.

In the case of `C[C@@H](OC[C@H](O)CNC(C)(C)CC1Cc2ccccc2C1)c1cccc2c1O[C@@H]1[C@@H](C(=O)O)[C@H]21` [Example 1-3], the IC50 is 40 nM.

For `Cc1ccc(CC(C)(C)NC[C@@H](O)CO[C@H](C)c2cccc3c2O[C@@H]2[C@@H](C(=O)O)[C@H]32)cc1F` [Example 1-4], the concentration for half-maximal inhibition (IC50) amounted to 78 nM.

In the case of `Cc1ccc(CC(C)(C)NC[C@@H](O)CO[C@H](C)c2cccc3c2O[C@@H]2[C@@H](C(=O)O)[C@H]32)cc1C` [Example 1-5], the IC50 stood at 230 nM.

For the compound `C[C@@H](OC[C@H](O)CNC(C)(C)Cc1ccc2occc2c1)c1cccc2c1O[C@@H]1[C@@H](C(=O)O)[C@H]21` [Example 1-6], the IC50 is 49 nM.

Take `C[C@@H](OC[C@H](O)CNC(C)(C)Cc1ccc2c(c1)CCC2)c1cccc2c1O[C@@H]1[C@@H](C(=O)O)[C@H]21` [Example 1-7]: the IC50 stood at 110 nM.

With `C[C@@H](OC[C@H](O)CNC(C)(C)Cc1ccc2c(c1)OCO2)c1cccc2c1O[C@@H]1[C@@H](C(=O)O)[C@H]21` [Example 1-8], the 50% inhibitory concentration (IC50) came to 320 nM.

In the case of `C[C@@H](OC[C@H](O)CNC(C)(C)Cc1ccc2sccc2c1)c1cccc2c1O[C@@H]1[C@@H](C(=O)O)[C@H]21` [Example 1-9], the IC50 is 27 nM.

On to `C[C@@H](OC[C@H](O)CNC(C)(C)Cc1ccc2c(c1)OCCO2)c1cccc2c1O[C@@H]1[C@@H](C(=O)O)[C@H]21` [Example 1-10], for which the half-maximal inhibitory concentration (IC50) worked out at 460 nM.

Turning to `Cc1ccc(CC(C)(C)NC[C@@H](O)CO[C@H](C)c2cccc3c2O[C@@H]2[C@@H](C(=O)O)[C@H]32)c(F)c1` [Example 1-11], the IC50 was 140 nM.

Regarding `C[C@@H](OC[C@H](O)CNC(C)(C)Cc1ccc(Cl)c(Cl)c1)c1cccc2c1O[C@@H]1[C@@H](C(=O)O)[C@H]21` [Example 1-13], the IC50 was found to be 39 nM.

Turning to `C[C@@H](OC[C@H](O)CNC(C)(C)CCCc1ccccc1)c1cccc2c1O[C@@H]1[C@@H](C(=O)O)[C@H]21` [Example 1-14], the IC50 stood at 38 nM.

`C[C@@H](OC[C@H](O)CNC(C)(C)Cc1ccc(F)c(F)c1)c1cccc2c1O[C@@H]1[C@@H](C(=O)O)[C@H]21` [Example 1-15]: the 50% inhibitory concentration (IC50) was 1270 nM.

Consider `C[C@@H](OC[C@H](O)CNC(C)(C)Cc1ccc([S+](C)[O-])cc1)c1cccc2c1O[C@@H]1[C@@H](C(=O)O)[C@H]21` (stereo partly drawn) [Example 1-16], for which the IC50 is > 10000 nM.

For the compound `CSc1ccc(CC(C)(C)NC[C@@H](O)CO[C@H](C)c2cccc3c2O[C@@H]2[C@@H](C(=O)O)[C@H]32)cc1F` [Example 1-17], the half-inhibitory concentration (IC50) came to 165 nM.

In the case of `C[C@@H](OC[C@H](O)CNC(C)(C)Cc1ccc([S+](C)[O-])c(F)c1)c1cccc2c1O[C@@H]1[C@@H](C(=O)O)[C@H]21` (stereo partly drawn) [Example 1-18], the IC50 was > 10000 nM.

Take `COc1ccc(CC(C)(C)NC[C@@H](O)CO[C@H](C)c2cccc3c2O[C@@H]2[C@@H](C(=O)O)[C@H]32)c(Cl)c1` [Example 1-19]: the IC50 stood at 170 nM.

As for `C[C@@H](OC[C@H](O)CNC(C)(C)CCSc1ccccc1)c1cccc2c1O[C@@H]1[C@@H](C(=O)O)[C@H]21` [Example 1-20], the IC50 turned out to be 330 nM.

With `CSc1ccc(CC(C)(C)NC[C@@H](O)CO[C@H](C)c2cccc3c2O[C@@H]2[C@@H](C(=O)O)[C@H]32)cc1Cl` [Example 1-21], the IC50 stood at 86 nM.

With `C[C@@H](OC[C@H](O)CNC(C)(C)Cc1ccc2ccccc2c1)c1cccc2c1O[C@H]1[C@H](C(=O)O)[C@@H]21` [Example 2-1], the IC50 was 132 nM.

In the case of `C[C@@H](OC[C@H](O)CNC(C)(C)Cc1ccc(Cl)c(F)c1)c1cccc2c1O[C@H]1[C@H](C(=O)O)[C@@H]21` [Example 2-2], the IC50 is 148 nM.

On to `C[C@@H](OC[C@H](O)CNC(C)(C)CC1Cc2ccccc2C1)c1cccc2c1O[C@H]1[C@H](C(=O)O)[C@@H]21` [Example 2-3], for which the IC50 was found to be 307 nM.

With `Cc1ccc(CC(C)(C)NC[C@@H](O)CO[C@H](C)c2cccc3c2O[C@H]2[C@H](C(=O)O)[C@@H]32)cc1C` [Example 2-4], the IC50 came to 381 nM.

Take `C[C@@H](OC[C@H](O)CNC(C)(C)COCc1ccccc1)c1cccc2c1O[C@H]1[C@H](C(=O)O)[C@@H]21` [Example 2-5]: the IC50 worked out at 4220 nM.

For `C[C@@H](OC[C@H](O)CNC(C)(C)Cc1ccc(Cl)cc1F)c1cccc2c1O[C@H]1[C@H](C(=O)O)[C@@H]21` [Example 2-6], the IC50 was determined as 730 nM.

Regarding `C[C@@H](OC[C@H](O)CNC(C)(C)C(=O)N1CCc2ccccc2C1)c1cccc2c1O[C@H]1[C@H](C(=O)O)[C@@H]21` [Example 2-7], the IC50 is ≥ 10000 nM.

On to `C[C@@H](OC[C@H](O)CNC(C)(C)CN1CCc2ccccc2C1)c1cccc2c1O[C@H]1[C@H](C(=O)O)[C@@H]21` [Example 2-8], for which the IC50 was 7390 nM.

Regarding `CSc1ccc(CC(C)(C)NC[C@@H](O)CO[C@H](C)c2cccc3c2O[C@H]2[C@H](C(=O)O)[C@@H]32)cc1F` [Example 2-9], the IC50 is 830 nM.

Consider `C[C@@H](OC[C@H](O)CNC(C)(C)Cc1ccc2ccccc2c1)c1cccc2c1O[C@@H]1[C@@H](C(=O)NS(=O)(=O)C3(C)CC3)[C@H]21` [Example 4-1], for which the IC50 was found to be 60 nM.

On to `C[C@@H](OC[C@H](O)CNC(C)(C)Cc1ccc(Cl)c(F)c1)c1cccc2c1[C@@H]1[C@H](O2)[C@H]1C(=O)O` [Example 5-2], for which the concentration for half-maximal inhibition (IC50) was 32 nM.

Turning to `C[C@@H](OC[C@H](O)CNC(C)(C)CC1Cc2ccccc2C1)c1cccc2c1[C@@H]1[C@H](O2)[C@H]1C(=O)O` [Example 5-3], the IC50 is 35.5 nM.

On to `Cc1ccc(CC(C)(C)NC[C@@H](O)CO[C@H](C)c2cccc3c2[C@@H]2[C@H](O3)[C@H]2C(=O)O)cc1C` [Example 5-5], for which the 50% inhibitory concentration (IC50) turned out to be 26 nM.

`C[C@@H](OC[C@H](O)CNC(C)(C)Cc1ccc2occc2c1)c1cccc2c1[C@@H]1[C@H](O2)[C@H]1C(=O)O` [Example 5-6]: the IC50 worked out at 137 nM.

Consider `C[C@@H](OC[C@H](O)CNC(C)(C)Cc1ccc2c(c1)CCC2)c1cccc2c1[C@@H]1[C@H](O2)[C@H]1C(=O)O` [Example 5-7], for which the IC50 was 25 nM.

Regarding `C[C@@H](OC[C@H](O)CNC(C)(C)Cc1ccc2c(c1)OCO2)c1cccc2c1[C@@H]1[C@H](O2)[C@H]1C(=O)O` [Example 5-8], the IC50 was 160 nM.

For `C[C@@H](OC[C@H](O)CNC(C)(C)Cc1ccc2sccc2c1)c1cccc2c1[C@@H]1[C@H](O2)[C@H]1C(=O)O` [Example 5-9], the IC50 was 23 nM.

In the case of `C[C@@H](OC[C@H](O)CNC(C)(C)Cc1ccc2c(c1)OCCO2)c1cccc2c1[C@@H]1[C@H](O2)[C@H]1C(=O)O` [Example 5-10], the IC50 turned out to be 153 nM.

Turning to `COc1ccc(CC(C)(C)NC[C@@H](O)CO[C@H](C)c2cccc3c2[C@@H]2[C@H](O3)[C@H]2C(=O)O)c(F)c1` [Example 5-11], the IC50 worked out at 108 nM.

For `C[C@@H](OC[C@H](O)CNC(C)(C)Cc1ccc(Cl)c(Cl)c1)c1cccc2c1[C@@H]1[C@H](O2)[C@H]1C(=O)O` [Example 5-12], the IC50 was found to be 39 nM.
